Source: patent publication US20240252668A1, “ANTIBODY DRUG CONJUGATES AND METHODS FOR MAKING THEREOF” (Novartis AG, priority 2021, published 2024)
Where two headings read alike, the source gives them in different places. Starred links: 1 amine or outer side, 2 acyl side, 3 side chain; linkers in the order of their positions; H or OH if unused. Positions of bridges follow the written chain, without caps; N, C: chain ends. Non-standard residues stand in square brackets, D forms with d. Residues, ends and D or L forms follow the SMILES beside them. *: point of attachment. Leu(3R-OH,Nα-propionyl) = CCC(=O)N[C@H](C(=O)*)[C@H](O)C(C)C; X1 = CC(C)[C@@H](O[*:3])[C@H](N[*:1])C(=O)[*:2]; NMeT = CN[C@H](C(=O)O)[C@@H](C)O; dPhLac = O=C(O)[C@H](O)Cc1ccccc1; NMeA = CN[C@@H](C)C(=O)O; NMeDha = C=C(NC)C(=O)O

Legend:
[1] = EPSA determination by supercritical fluid chromatography; type: physicochemical; settings: supercritical fluid chromatography, Chirex 3014 column; modified EPSA method, SFC; read-out: EPSA
Outline: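 SFC on a Chirex 3014 column ([…], 3×100 mm, 100 Å). Gradient runs linearly from 5% to 60% methanol containing 20 mM ammonium formate, in scCO2, over 4.5 min.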

[2] = test system: MP41 uveal melanoma cell line (heterozygous GNA11 Q209L); assay: Cell proliferation assay (resazurin cell viability), MP41 cell line; type: cell-based
Outline: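 Cells seeded the night before, then treated 96 h at 37 °C in RPMI/10% FCS (A375 in DMEM/10% FCS); compounds 260 nM to 0.036 nM in ⅓ dilution steps, one compound 10000 nM to 1.52 nM. Viability read by resazurin addition after 96 h.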

[3] = Plasma incubation of compound (A1), mouse (CD-1) plasma; type: in vitro ADME
Description: (§1) Plasma incubations and sample preparation: Compound (A1) was spiked at 5.00 μg/mL in PBS and pooled mixed gender mouse (CD-1), cynomolgus monkey and human plasma. Samples were incubated on a Thermomixer (Eppendorf) at 37° C. while shaking at 650 rpm. Aliquots of 50 μL (n=3) were drawn from each incubation tube following 0, 0.5, 1, 2, 4, 8 and 24 h of incubation. 50 μL of sample was quenched with 200 μL of acetonitrile, containing both generic internal standards, glybenclamide and warfarin, at 62.5 ng/mL. Samples were briefly vortexed and centrifuged for 20 min at 4000 rpm and 4° C. 200 μL of the supernatant was transferred into a clean 800 μL 96-well sample collection plate.
(§2) Quantification by LC-MS/MS: LC-MS/MS analysis was conducted with a Shimadzu Nexera UPLC coupled to AB Sciex QTRAP 6500 using the SRM acquisition mode (3 μL injected). Samples were analyzed using a ACE 3° C.18-PFP (3 μM, 2.1×50 mm column) at a column temperature of 65° C. […] Quantification of compound (A1) and 5 was performed by MS-MRM (electrospray in positive mode, ion spray voltage: 5000 V, source temperature: 500° C., curtain gas: 25 psig, nebulizer gas: 60 psig, turbo ion spray gas: 40 psig, mass range: low, resolution Q1/Q3: unit, collision gas: medium, dwell time: 12 msec). […] Peak integration and quantification was conducted with the AB Sciex Analyst software (v.1.7) using the Analyst Classic algorithm.

[4] = Plasma incubation of compound (A1), cynomolgus monkey plasma; type: in vitro ADME
Description: as §1, §2

[5] = test system: Gαq-mutant uveal melanoma xenografts; settings: systemically administered; cited from earlier work
[6] = Plasma incubation of compound (A1), human plasma, LC-MS/MS quantification; type: in vitro ADME; settings: human plasma, 37° C.
Description: as §1
Quantification by LC-MS/MS: LC-MS/MS analysis was conducted with a Shimadzu Nexera UPLC coupled to AB Sciex QTRAP 6500 using the SRM acquisition mode (3 μL injected). Samples were analyzed using a ACE 3° C.18-PFP (3 μM, 2.1×50 mm column) at a column temperature of 65° C. The starting conditions were 97% H20 containing 0.1% formic acid and 3% CH3CN containing 0.1% formic acid. Quantification of compound (A1) and 5 was performed by MS-MRM (electrospray in positive mode, ion spray voltage: 5000 V, source temperature: 500° C., curtain gas: 25 psig, nebulizer gas: 60 psig, turbo ion spray gas: 40 psig, mass range: low, resolution Q1/Q3: unit, collision gas: medium, dwell time: 12 msec). Separate calibration curves were established with calibration standards of compounds (A1) and 5 at concentrations of 10.0, 5.00, 2.50, 1.00, 0.500, 0.100, 0.050 and 0.010 μg/mL respectively. Peak integration and quantification was conducted with the AB Sciex Analyst software (v.1.7) using the Analyst Classic algorithm. […]

C=C1C(=O)N[C@@H](C)C(=O)N(C)[C@@H](C)C(=O)N[C@@H]([C@H](OC(=O)[C@@H](NC(=O)CC)[C@H](O)C(C)C)C(C)C)C(=O)N(C)[C@@H]([C@@H](C)OC)C(=O)O[C@H](C(C)C)[C@H](NC(C)=O)C(=O)O[C@H](Cc2ccccc2)C(=O)N1C [Compound (A1), FR900359] (Ac-[X1][dPhLac][NMeDha]A[NMeA][X1](Leu(3R-OH,Nα-propionyl))[NMeT](Me); ester 1-C)
EPSA [1]: 94 A^2 | GI50 ([2]; MP41 (GNA11 Q209L), 96 hours of treatment, read-out: GI50 by cell line, MP41): 0.2 nM | GI50 ([2]; MP41 cell line, average of Rep. 1 and 2, read-out: GI50 MP41 Average): 0.2 nM | GI50 ([2]; MP41 cell line, replicate 1, read-out: GI50 MP41 Rep. 1): 0.22 nM | GI50 ([2]; MP41 cell line, replicate 2, read-out: GI50 MP41 Rep. 2): 0.27 nM | plasma stability / metabolite formation compared with human plasma [3]: Very similar results | plasma stability / metabolite formation compared with human plasma [4]: Very similar results | tolerability of the active doses [5]: well tolerated | Concentration of (A1), Aliquot 1 ([6]; 0 h): 4620 ng/mL | Concentration of (A1), Aliquot 2 ([6]; 0 h): 4350 ng/mL | Concentration of (A1), Aliquot 3 ([6]; 0 h): 4750 ng/mL | Mean concentration of (A1) ([6]; 0 h): 4570 ng/mL | Concentration of (A1), Aliquot 1 ([6]; 0.5 h): 5150 ng/mL | Concentration of (A1), Aliquot 2 ([6]; 0.5 h): 5100 ng/mL | Concentration of (A1), Aliquot 3 ([6]; 0.5 h): 5100 ng/mL | Mean concentration of (A1) ([6]; 0.5 h): 5120 ng/mL | Concentration of (A1), Aliquot 1 ([6]; 1 h): 4980 ng/mL | Concentration of (A1), Aliquot 2 ([6]; 1 h): 4580 ng/mL | Concentration of (A1), Aliquot 3 ([6]; 1 h): 5020 ng/mL | Mean concentration of (A1) ([6]; 1 h): 4860 ng/mL | Concentration of (A1), Aliquot 1 ([6]; 2 h): 4790 ng/mL | Concentration of (A1), Aliquot 2 ([6]; 2 h): 5130 ng/mL | Concentration of (A1), Aliquot 3 ([6]; 2 h): 4680 ng/mL | Mean concentration of (A1) ([6]; 2 h): 4870 ng/mL | Concentration of (A1), Aliquot 1 ([6]; 4 h): 4140 ng/mL | Concentration of (A1), Aliquot 2 ([6]; 4 h): 4350 ng/mL | Concentration of (A1), Aliquot 3 ([6]; 4 h): 4350 ng/mL | Mean concentration of (A1) ([6]; 4 h): 4280 ng/mL | Concentration of (A1), Aliquot 1 ([6]; 8 h): 3260 ng/mL | Concentration of (A1), Aliquot 2 ([6]; 8 h): 3660 ng/mL | Concentration of (A1), Aliquot 3 ([6]; 8 h): 3600 ng/mL | Mean concentration of (A1) ([6]; 8 h): 3510 ng/mL | Concentration of (A1), Aliquot 1 ([6]; 24 h): 1350 ng/mL | Concentration of (A1), Aliquot 2 ([6]; 24 h): 1430 ng/mL | Concentration of (A1), Aliquot 3 ([6]; 24 h): 1290 ng/mL | Mean concentration of (A1) ([6]; 24 h): 1360 ng/mL
